Legend:
[1] = target: T1, Bromodomain-containing protein 3 (Homo sapiens, UniProt Q15059); test: BRD3(1) DiscoverX BROMOscan
[2] = target: Beta-3 adrenergic receptor (Homo sapiens) (UniProt P13945); conditions: Compound concentration 10.0 uM
[3] = target: T1, Bromodomain-containing protein 3; test: BET mutant TR-FRET assay (BRD3 BD2)
[4] = target: Peregrin (Homo sapiens, UniProt P55201); test: BRPF1 DiscoverX BROMOscan
[5] = target: T2, Bromodomain-containing protein 2 (Homo sapiens, UniProt P25440); test: TR-FRET assay (BRD2 BD1)
T2 sequence (P25440 whole entry): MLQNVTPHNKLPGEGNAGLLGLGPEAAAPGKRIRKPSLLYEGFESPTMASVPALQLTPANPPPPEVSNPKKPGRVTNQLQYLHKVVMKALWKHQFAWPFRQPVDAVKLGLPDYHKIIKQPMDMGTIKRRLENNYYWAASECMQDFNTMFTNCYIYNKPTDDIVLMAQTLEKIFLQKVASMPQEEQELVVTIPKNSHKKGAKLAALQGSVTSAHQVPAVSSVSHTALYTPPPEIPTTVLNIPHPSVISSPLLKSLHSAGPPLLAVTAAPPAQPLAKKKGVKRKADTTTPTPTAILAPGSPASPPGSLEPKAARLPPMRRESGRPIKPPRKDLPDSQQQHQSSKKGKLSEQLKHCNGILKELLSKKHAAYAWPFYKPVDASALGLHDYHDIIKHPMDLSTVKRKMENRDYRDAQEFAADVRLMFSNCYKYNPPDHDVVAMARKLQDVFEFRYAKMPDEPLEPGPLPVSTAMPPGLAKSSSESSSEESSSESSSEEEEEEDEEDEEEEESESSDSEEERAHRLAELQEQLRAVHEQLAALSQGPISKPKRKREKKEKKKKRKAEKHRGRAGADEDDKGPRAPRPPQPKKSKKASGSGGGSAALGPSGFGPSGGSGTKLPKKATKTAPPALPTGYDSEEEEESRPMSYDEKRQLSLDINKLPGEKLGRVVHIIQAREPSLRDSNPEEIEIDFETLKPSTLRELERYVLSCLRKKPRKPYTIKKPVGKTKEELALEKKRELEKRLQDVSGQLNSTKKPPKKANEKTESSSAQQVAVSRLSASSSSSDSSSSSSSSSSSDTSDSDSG

[6] = target: Delta-type opioid receptor (Homo sapiens) (UniProt P41143); conditions: Compound concentration 10.0 uM
[7] = target: Sigma intracellular receptor 2 (Homo sapiens) (UniProt Q5BJF2); conditions: Compound concentration 10.0 uM
[8] = target: T3, D(1A) dopamine receptor (Homo sapiens, UniProt P21728); conditions: Compound concentration 10.0 uM
T3 sequence (P21728 whole entry): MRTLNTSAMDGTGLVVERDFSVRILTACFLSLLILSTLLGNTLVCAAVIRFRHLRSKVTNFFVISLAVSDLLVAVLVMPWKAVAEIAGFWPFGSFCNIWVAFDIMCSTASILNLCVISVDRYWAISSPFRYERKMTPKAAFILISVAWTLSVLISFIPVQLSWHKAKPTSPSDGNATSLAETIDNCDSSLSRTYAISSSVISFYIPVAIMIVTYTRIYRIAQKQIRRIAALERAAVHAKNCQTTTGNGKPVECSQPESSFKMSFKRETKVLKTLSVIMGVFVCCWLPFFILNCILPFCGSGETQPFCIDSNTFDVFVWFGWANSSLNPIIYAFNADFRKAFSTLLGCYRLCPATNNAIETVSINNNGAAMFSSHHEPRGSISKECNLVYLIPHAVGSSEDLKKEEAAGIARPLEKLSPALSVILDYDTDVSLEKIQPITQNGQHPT

[9] = target: Cannabinoid receptor 2 (Homo sapiens, UniProt P34972); test: (§1) Cross screening panel
Sequence of Cannabinoid receptor 2 (P34972 whole entry): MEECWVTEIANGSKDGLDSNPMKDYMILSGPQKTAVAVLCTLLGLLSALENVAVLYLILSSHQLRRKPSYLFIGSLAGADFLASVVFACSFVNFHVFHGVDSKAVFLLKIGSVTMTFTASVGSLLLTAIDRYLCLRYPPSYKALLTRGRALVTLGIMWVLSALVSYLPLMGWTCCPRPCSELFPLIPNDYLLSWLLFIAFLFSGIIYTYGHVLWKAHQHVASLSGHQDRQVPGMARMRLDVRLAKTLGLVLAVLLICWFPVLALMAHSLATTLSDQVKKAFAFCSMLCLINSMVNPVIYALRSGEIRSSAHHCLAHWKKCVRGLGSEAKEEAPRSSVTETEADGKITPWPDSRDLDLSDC

[10] = target: 5-hydroxytryptamine receptor 2A (Homo sapiens, UniProt P28223); test: as §1
[11] = target: Beta-2 adrenergic receptor (Homo sapiens, UniProt P07550); test: as §1
Sequence of Beta-2 adrenergic receptor (P07550 whole entry): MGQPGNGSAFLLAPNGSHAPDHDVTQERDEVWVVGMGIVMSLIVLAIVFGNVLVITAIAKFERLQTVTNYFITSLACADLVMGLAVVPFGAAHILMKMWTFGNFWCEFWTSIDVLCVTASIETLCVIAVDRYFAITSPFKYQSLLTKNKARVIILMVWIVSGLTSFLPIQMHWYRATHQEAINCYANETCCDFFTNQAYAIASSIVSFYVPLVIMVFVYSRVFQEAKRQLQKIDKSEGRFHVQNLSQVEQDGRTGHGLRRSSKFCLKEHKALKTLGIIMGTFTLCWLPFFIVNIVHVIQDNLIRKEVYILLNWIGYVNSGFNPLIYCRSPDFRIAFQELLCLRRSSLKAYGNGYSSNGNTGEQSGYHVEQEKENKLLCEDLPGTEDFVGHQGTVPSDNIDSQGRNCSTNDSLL

[12] = target: Muscarinic acetylcholine receptor M2 (Homo sapiens, UniProt P08172); test: as §1
Sequence of Muscarinic acetylcholine receptor M2 (P08172 whole entry): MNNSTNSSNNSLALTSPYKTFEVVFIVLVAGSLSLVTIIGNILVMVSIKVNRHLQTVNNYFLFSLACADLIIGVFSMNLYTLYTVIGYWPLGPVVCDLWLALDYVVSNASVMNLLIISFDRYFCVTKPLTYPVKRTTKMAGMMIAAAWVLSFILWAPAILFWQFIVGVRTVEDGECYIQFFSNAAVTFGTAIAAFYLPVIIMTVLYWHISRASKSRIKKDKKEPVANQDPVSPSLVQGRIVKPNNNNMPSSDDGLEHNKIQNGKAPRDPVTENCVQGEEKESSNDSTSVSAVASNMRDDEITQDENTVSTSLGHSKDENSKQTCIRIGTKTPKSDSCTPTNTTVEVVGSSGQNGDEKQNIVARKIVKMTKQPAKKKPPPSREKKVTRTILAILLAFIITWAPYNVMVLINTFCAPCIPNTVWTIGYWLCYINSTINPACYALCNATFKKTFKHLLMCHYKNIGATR

[13] = target: T3, D(1A) dopamine receptor; test: as §1
[14] = target: Sodium channel protein type 5 subunit alpha (Homo sapiens, UniProt Q14524); test: as §1
[15] = target: 5-hydroxytryptamine receptor 2C (Homo sapiens, UniProt P28335); test: as §1
[16] = target: Kappa-type opioid receptor (Homo sapiens, UniProt P41145); test: as §1
[17] = target: 5-hydroxytryptamine receptor 1B (Homo sapiens, UniProt P28222); test: as §1
Sequence of 5-hydroxytryptamine receptor 1B (P28222 whole entry): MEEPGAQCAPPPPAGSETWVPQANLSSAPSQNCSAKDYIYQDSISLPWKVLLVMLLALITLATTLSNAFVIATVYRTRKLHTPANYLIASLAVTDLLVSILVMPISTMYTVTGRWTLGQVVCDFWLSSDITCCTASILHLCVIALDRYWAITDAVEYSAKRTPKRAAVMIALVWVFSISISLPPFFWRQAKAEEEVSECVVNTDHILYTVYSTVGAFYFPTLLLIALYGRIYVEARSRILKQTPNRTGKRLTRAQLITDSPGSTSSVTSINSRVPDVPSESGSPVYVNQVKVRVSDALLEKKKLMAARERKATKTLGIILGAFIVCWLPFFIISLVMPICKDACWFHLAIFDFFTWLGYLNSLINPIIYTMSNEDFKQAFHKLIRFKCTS

[18] = target: Alpha-1B adrenergic receptor (Homo sapiens, UniProt P35368); test: as §1
Sequence of Alpha-1B adrenergic receptor (P35368 whole entry): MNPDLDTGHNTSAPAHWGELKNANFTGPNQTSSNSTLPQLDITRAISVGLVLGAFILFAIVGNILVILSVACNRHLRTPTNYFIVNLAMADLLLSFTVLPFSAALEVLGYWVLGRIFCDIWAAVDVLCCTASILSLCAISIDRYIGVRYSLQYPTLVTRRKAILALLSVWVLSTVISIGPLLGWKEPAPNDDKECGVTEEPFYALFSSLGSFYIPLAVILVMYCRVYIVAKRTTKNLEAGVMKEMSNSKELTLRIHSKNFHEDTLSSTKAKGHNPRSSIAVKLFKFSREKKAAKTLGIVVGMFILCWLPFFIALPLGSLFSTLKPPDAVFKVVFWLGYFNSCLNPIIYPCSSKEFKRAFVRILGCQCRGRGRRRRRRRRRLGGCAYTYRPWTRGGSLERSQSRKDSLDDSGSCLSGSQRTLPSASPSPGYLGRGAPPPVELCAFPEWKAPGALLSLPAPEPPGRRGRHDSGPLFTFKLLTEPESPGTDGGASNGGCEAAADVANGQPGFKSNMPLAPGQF

[19] = target: Solute carrier organic anion transporter family member 1B1 (Homo sapiens, UniProt Q9Y6L6); test: as §1
[20] = target: T2, Bromodomain-containing protein 2; test: BRD2(2) DiscoverX BROMOscan
[21] = target: Transcription initiation factor TFIID subunit 1 (Homo sapiens, UniProt P21675); test: TAF1(2) DiscoverX BROMOscan
[22] = target: Bromodomain and PHD finger-containing protein 3 (Homo sapiens, UniProt Q9ULD4); test: BRPF3 DiscoverX BROMOscan
[23] = target: E3 ubiquitin-protein ligase TRIM33 (Homo sapiens, UniProt Q9UPN9); test: TRIM33(PHD,Bromo.) DiscoverX BROMOscan
Sequence of E3 ubiquitin-protein ligase TRIM33 (Q9UPN9 whole entry): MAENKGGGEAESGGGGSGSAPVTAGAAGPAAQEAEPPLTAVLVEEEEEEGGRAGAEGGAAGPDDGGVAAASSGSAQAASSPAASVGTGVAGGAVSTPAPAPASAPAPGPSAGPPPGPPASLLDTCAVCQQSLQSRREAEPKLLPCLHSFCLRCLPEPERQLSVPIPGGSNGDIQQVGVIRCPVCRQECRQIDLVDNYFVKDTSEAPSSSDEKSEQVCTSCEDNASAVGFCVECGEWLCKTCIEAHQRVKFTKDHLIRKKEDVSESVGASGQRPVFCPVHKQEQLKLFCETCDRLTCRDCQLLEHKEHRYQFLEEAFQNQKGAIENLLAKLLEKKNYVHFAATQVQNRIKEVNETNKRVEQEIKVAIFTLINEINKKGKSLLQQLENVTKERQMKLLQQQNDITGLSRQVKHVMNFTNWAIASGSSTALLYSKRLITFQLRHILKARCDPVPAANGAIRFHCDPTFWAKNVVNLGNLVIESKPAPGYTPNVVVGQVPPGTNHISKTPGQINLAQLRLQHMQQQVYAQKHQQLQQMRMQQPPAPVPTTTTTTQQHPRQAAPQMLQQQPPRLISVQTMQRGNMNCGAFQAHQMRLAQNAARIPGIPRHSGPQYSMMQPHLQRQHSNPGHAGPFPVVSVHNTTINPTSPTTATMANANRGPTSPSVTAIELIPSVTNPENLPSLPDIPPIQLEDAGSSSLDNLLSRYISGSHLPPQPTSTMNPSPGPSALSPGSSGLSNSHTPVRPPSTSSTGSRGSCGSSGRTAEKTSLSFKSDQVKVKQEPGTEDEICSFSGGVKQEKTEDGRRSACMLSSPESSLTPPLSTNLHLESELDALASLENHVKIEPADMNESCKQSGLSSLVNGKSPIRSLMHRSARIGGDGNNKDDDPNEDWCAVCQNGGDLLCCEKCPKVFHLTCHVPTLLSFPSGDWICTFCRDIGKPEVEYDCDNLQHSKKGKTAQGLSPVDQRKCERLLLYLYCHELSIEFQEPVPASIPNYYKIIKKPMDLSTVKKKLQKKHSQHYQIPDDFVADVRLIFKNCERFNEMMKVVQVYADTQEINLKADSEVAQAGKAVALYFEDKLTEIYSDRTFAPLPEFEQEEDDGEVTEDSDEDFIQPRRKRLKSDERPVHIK

[24] = target: D(2) dopamine receptor (Homo sapiens, UniProt P14416); conditions: Compound concentration 10.0 uM
[25] = target: T2, Bromodomain-containing protein 2; test: BRD2(1,2) DiscoverX BROMOscan
[26] = target: Muscarinic acetylcholine receptor M4 (Homo sapiens) (UniProt P08173); conditions: Compound concentration 10.0 uM
Sequence of Muscarinic acetylcholine receptor M4 (Homo sapiens) (P08173 whole entry): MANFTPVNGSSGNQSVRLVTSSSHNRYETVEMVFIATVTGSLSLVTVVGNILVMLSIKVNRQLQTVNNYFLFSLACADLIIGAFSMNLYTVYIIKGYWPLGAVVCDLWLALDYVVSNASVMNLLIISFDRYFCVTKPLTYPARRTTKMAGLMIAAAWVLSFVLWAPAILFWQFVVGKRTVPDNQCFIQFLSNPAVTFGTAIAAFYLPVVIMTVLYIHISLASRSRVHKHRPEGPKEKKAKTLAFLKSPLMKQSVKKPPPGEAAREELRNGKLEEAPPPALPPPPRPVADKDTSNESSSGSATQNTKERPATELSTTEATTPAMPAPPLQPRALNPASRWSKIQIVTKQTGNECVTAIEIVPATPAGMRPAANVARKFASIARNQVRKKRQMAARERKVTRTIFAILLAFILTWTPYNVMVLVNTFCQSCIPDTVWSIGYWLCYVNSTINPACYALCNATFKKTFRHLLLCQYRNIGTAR

[27] = target: Bromodomain testis-specific protein (Homo sapiens, UniProt Q58F21); test: BET mutant TR-FRET assay (BRDT BD2)

SMILES: CC(=O)Nc1c(F)cc(C(=O)N[C@H]2CC[C@H](O)CC2)cc1O[C@@H](C)c1ccccc1 [GSK046]
- Kd [1]: 2.08 µM
- inhibition [2]: 17.5%
- pIC50 [3]: 7
- Kd [4]: 30 µM
- IC50 [5]: 11 µM (not active)
- inhibition [6]: 27.1%
- inhibition [7]: -0.94%
- inhibition [8]: 4.11%
- EC50 [9]: > 100 µM
- EC50 [10]: > 25.1 µM
- EC50 [11]: > 100 µM
- IC50 [11]: > 100 µM
- EC50 [12]: > 50.1 µM
- IC50 [12]: > 50.1 µM
- IC50 [13]: > 100 µM
- IC50 [14]: > 100 µM
- EC50 [15]: > 25.1 µM
- EC50 [16]: > 100 µM
- EC50 [17]: > 100 µM
- IC50 [17]: > 100 µM
- Ki [18]: > 25.1 µM
- IC50 [19]: > 50.1 µM
- Kd [20]: 0.035 µM
- Kd [21]: 30 µM
- Kd [22]: 30 µM
- Kd [23]: 30 µM
- inhibition [24]: 25.8%
- Kd [25]: 0.1 µM
- inhibition [26]: -0.27%
- pIC50 [27]: 6.7

— ChEMBL document CHEMBL4630908 (2021)
